US5288709A, “Erythromycin derivatives” (priority 1991, dated 1994)
≈ marks a conversion by molar mass, not a printed value. Like-named read-outs stand apart in the source and are kept apart here.

Experiments:
Test in all cases: In-vitro antimicrobial activity primary screen (agar dilution MIC)
Format in all cases: cell-based
[1] = system: Enterobacter aerogenes ATCC 13048; settings: Klebsiella aerogenes
How it was run: (§1)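 Plates: BHI agar + serial aqueous compound dilutions (12). Inoculum: 1:100; 1:10 for Streptococcus/slow growers. Incubation: 35-37° C, 20-24 h. Readout: lowest concentration without growth beyond faint haze or scattered colonies.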

[2] = system: Enterococcus faecium ATCC 8043
How it was run: as §1

Escherichia coli DC-2 = system: Escherichia coli DC-2
How it was run: as §1

Escherichia coli H560 = settings: Escherichia coli, H560, 24 h
How it was run: as §1

Escherichia coli JUHL = system: Escherichia coli JUHL
How it was run: as §1

Escherichia coli SS = settings: BHI agar, 20-24 h
How it was run: as §1

[3] = system: Klebsiella pneumoniae ATCC 8045
How it was run: as §1

[4] = system: Micrococcus luteus ATCC 4698; settings: 20-24 h
How it was run: as §1

[5] = system: Micrococcus luteus ATCC 9341; settings: 20-24 h
How it was run: as §1

[6] = system: Providencia stuartii CMX 640
How it was run: as §1

[7] = system: Pseudomonas aeruginosa A5007
How it was run: as §1

[8] = system: Pseudomonas aeruginosa BMH10; settings: Pseudomonas aeruginosa, BMH10, 24 h, BHI agar, 20-24 h
How it was run: as §1

[9] = system: Pseudomonas aeruginosa K799/61; settings: Pseudomonas aeruginosa K799/61; BHI agar, 20-24 h; read-out: MIC
How it was run: as §1

[10] = system: Pseudomonas aeruginosa K799/WT
How it was run: as §1

Pseudomonas cepacia 2961 = settings: BHI agar, 20-24 h
How it was run: as §1

[11] = system: Staphylococcus aureus 45 RAR2; settings: Staphylococcus aureus, 45RAR2, 24 h, BHI agar, 20-24 h
How it was run: as §1

Staphylococcus aureus 45 = settings: BHI agar, 20-24 h
How it was run: as §1

[12] = system: Staphylococcus aureus 642A; settings: BHI agar, 20-24 h, read-out: MIC
How it was run: as §1

[13] = system: Staphylococcus aureus A5177; settings: Staphylococcus aureus, A5177, 24 h
How it was run: as §1

[14] = system: Staphylococcus aureus ATCC 6538P; settings: ATCC6538P, BHI agar, 20-24 h
How it was run: as §1

[15] = system: Staphylococcus aureus NCTC 10649; settings: NCTC10649, BHI agar, 20-24 h, read-out: MIC
How it was run: as §1

[16] = system: Staphylococcus epidermidis 3519; settings: BHI agar, 20-24 h
How it was run: as §1

[17] = system: Streptococcus agalactiae CMX 508; settings: 20-24 h
How it was run: as §1

[18] = system: Streptococcus bovis A5169; settings: Streptococcus equinus, A5169, 24 h, BHI agar, 20-24 h
How it was run: as §1

[19] = system: Streptococcus pyrogenes 2548 INDUC; settings: BHI agar, 20-24 h
How it was run: as §1

[20] = system: Streptococcus pyrogenes EES61; settings: BHI agar, 20-24 h
How it was run: as §1

[21] = system: Staphylococcus aureus CMX 553; settings: Staphylococcus aureus, CMX553, 24 h, BHI agar, 20-24 h, read-out: MIC
How it was run: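 MIC is read as the lowest compound level yielding no growth, slight haze or sparse colonies on the inoculum spot, relative to a drug-free plate. Strains were replicator-inoculated (1:100 dilution) onto BHI agar plates holding twelve dilutions and held at 35-37 °C for 20-24 h, with erythromycin A as comparator.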

Acinetobacter SP CMX 669 = settings: Acinetobacter, SPCMX669, 24 h, Acinetobacter SP CMX 669; BHI agar, 20-24 h
How it was run: as §1

[22] = ATCC8043, Enterococcus faecium ATCC 8043, BHI agar, 20-24 h, read-out: MIC
[23] = Escherichia coli H560, BHI agar, 20-24 h
[24] = Micrococcus luteus, ATCC4698, 24 h, BHI agar
[25] = ATCC9341, BHI agar, read-out: MIC
[26] = Providencia stuartii, CMX640, 24 h
[27] = Pseudomonas aeruginosa, A5007, 24 h
[28] = Pseudomonas aeruginosa, K799/WT, 24 h
[29] = Burkholderia cepacia, 2961, 24 h
[30] = Staphylococcus aureus, 45, 24 h
[31] = Streptococcus agalactiae, CMX508, 24 h, BHI agar

SMILES | MIC [2, 22] | MIC (Escherichia coli H560; [23]) | MIC (Escherichia coli SS; Escherichia coli, 24 h) | MIC [8] | MIC [9] | MIC [11] | MIC [12] | MIC [13] | MIC [15] | MIC ([16]; read-out: MIC) | MIC [18] | MIC ([19]; read-out: MIC) | MIC ([20]; read-out: MIC) | MIC [21] | MIC [4, 24] | MIC [5, 25] | MIC [6, 26] | MIC [7, 27] | MIC [10, 28] | MIC (Pseudomonas cepacia 2961; [29]) | further results
CC[C@H]1OC(=O)[C@H](C)[C@@H](O[C@H]2C[C@@](C)(OC)[C@@H](OC(N)=O)[C@H](C)O2)[C@H](C)[C@@H](O[C@@H]2O[C@H](C)C[C@H](N(C)C)[C@H]2O)[C@](C)(O)C[C@@H](C)[C@@H]2O[C@@]1(C)C(=O)[C@H]2C [Example 31, (9S)-4"-O-Aminocarbonyl-9-deoxo-11,12-dideoxy-9,12-epoxy-11-oxoerythromycinA] | 0.05 µg/mL (≈ 0.0659 µM) | 50 µg/mL (≈ 65.9 µM) | 0.2 µg/mL (≈ 0.264 µM) | 50 µg/mL (≈ 65.9 µM) | 1.56 µg/mL (≈ 2.06 µM) | 0.05 µg/mL (≈ 0.0659 µM) | 0.05 µg/mL (≈ 0.0659 µM) | 50 µg/mL (≈ 65.9 µM) | 0.05 µg/mL (≈ 0.0659 µM) | 0.05 µg/mL (≈ 0.0659 µM) | 0.05 µg/mL (≈ 0.0659 µM) | 0.78 µg/mL (≈ 1.03 µM) | 0.02 µg/mL (≈ 0.0264 µM) | 0.05 µg/mL (≈ 0.0659 µM) |  |  |  |  |  |  | MIC ([1]; ATCC13048, Enterobacter aerogenes ATCC 13048, BHI agar, 20-24 h, read-out: MIC): 100 µg/mL (≈ 132 µM); MIC (Escherichia coli DC-2; DC2, Escherichia coli DC-2, BHI agar, 20-24 h, read-out: MIC): 100 µg/mL (≈ 132 µM); MIC (Escherichia coli JUHL; Escherichia coli JUHL, BHI agar, 20-24 h, read-out: MIC): 100 µg/mL (≈ 132 µM); MIC ([3]; ATCC8045, Klebsiella pneumoniae ATCC 8045, BHI agar, 20-24 h, read-out: MIC): 100 µg/mL (≈ 132 µM); MIC ([4]; ATCC4698, BHI agar, read-out: MIC): 0.05 µg/mL (≈ 0.0659 µM); MIC ([5]; Micrococcus luteus, ATCC9341, 24 h, BHI agar): 0.02 µg/mL (≈ 0.0264 µM); MIC ([6]; CMX640, Providencia stuartii CMX 640, BHI agar, 20-24 h, read-out: MIC): > 100 µg/mL; MIC ([7]; Pseudomonas aeruginosa A5007, BHI agar, 20-24 h, read-out: MIC): > 100 µg/mL; MIC ([10]; Pseudomonas aeruginosa K799/WT, BHI agar, 20-24 h, read-out: MIC): 100 µg/mL (≈ 132 µM); MIC (Pseudomonas cepacia 2961; Burkholderia cepacia, read-out: MIC): > 100 µg/mL; MIC (Staphylococcus aureus 45; read-out: MIC): 0.05 µg/mL (≈ 0.0659 µM); MIC ([14]; read-out: MIC): 0.05 µg/mL (≈ 0.0659 µM); MIC ([17]; CMX508, BHI agar, read-out: MIC): 0.02 µg/mL (≈ 0.0264 µM)
CC[C@H]1OC(=O)[C@H](C)[C@@H](O[C@H]2C[C@@](C)(OC)[C@@H](O)[C@H](C)O2)[C@H](C)[C@@H](O[C@@H]2O[C@H](C)C[C@H](N(C)C)[C@H]2O)[C@](C)(OC)C[C@@H](C)[C@@H]2O[C@@]1(C)[C@@H](O)[C@H]2C [Example 28A] | 0.05 µg/mL (≈ 0.0683 µM) | 25 µg/mL (≈ 34.2 µM) | 0.2 µg/mL (≈ 0.273 µM) | 50 µg/mL (≈ 68.3 µM) | 0.78 µg/mL (≈ 1.07 µM) | 0.2 µg/mL (≈ 0.273 µM) | 0.2 µg/mL (≈ 0.273 µM) | 0.2 µg/mL (≈ 0.273 µM) | 0.2 µg/mL (≈ 0.273 µM) | 0.2 µg/mL (≈ 0.273 µM) | 0.02 µg/mL (≈ 0.0273 µM) |  | 0.02 µg/mL (≈ 0.0273 µM) | 0.2 µg/mL (≈ 0.273 µM) | 0.1 µg/mL (≈ 0.137 µM) | 0.05 µg/mL (≈ 0.0683 µM) | > 100 µg/mL | > 100 µg/mL | > 100 µg/mL | > 100 µg/mL | MIC (Acinetobacter SP CMX 669): 6.2 µg/mL (≈ 8.47 µM); MIC ([1]; ATCC13048, 24 h, Enterobacter aerogenes ATCC 13048, BHI agar, 20-24 h): 50 µg/mL (≈ 68.3 µM); MIC (Escherichia coli DC-2; Escherichia coli, DC2, 24 h, Escherichia coli DC-2, BHI agar, 20-24 h): 25 µg/mL (≈ 34.2 µM); MIC (Escherichia coli JUHL; Escherichia coli, 24 h, Escherichia coli JUHL, BHI agar, 20-24 h): 25 µg/mL (≈ 34.2 µM); MIC (Staphylococcus aureus 45; [30]): 3.1 µg/mL (≈ 4.24 µM); MIC ([14]; Staphylococcus aureus, 24 h): 0.2 µg/mL (≈ 0.273 µM); MIC [17, 31]: 0.05 µg/mL (≈ 0.0683 µM); MIC ([19]; Streptococcus, 2548INDUC, 24 h): 3.1 µg/mL (≈ 4.24 µM)
CC[C@H]1OC(=O)[C@H](C)[C@@H](O[C@H]2C[C@@](C)(OC)[C@@H](O)[C@H](C)O2)[C@H](C)[C@@H](O[C@@H]2O[C@H](C)C[C@H](N(C)C)[C@H]2O)[C@](C)(OC)C[C@@H](C)C2=C(C)C(=O)[C@]1(C)O2 [Example 27, 9,10-Dihehydro-9-deoxo-11,12-dideoxy-9,12-epoxy-6-O-methyl-11-oxoerythromycin A] |  |  |  | 100 µg/mL (≈ 137 µM) |  | 0.39 µg/mL (≈ 0.536 µM) | 0.39 µg/mL (≈ 0.536 µM) | 0.39 µg/mL (≈ 0.536 µM) | 0.39 µg/mL (≈ 0.536 µM) |  | 0.05 µg/mL (≈ 0.0687 µM) | 100 µg/mL (≈ 137 µM) |  | 0.39 µg/mL (≈ 0.536 µM) | 0.2 µg/mL (≈ 0.275 µM) | 0.05 µg/mL (≈ 0.0687 µM) | > 100 µg/mL | > 100 µg/mL | > 100 µg/mL | > 100 µg/mL | MIC ([1]; ATCC13048, 24 h): > 100 µg/mL; MIC ([2]; Enterococcus faecium, ATCC8043, 24 h): 0.1 µg/mL (≈ 0.137 µM); MIC (Escherichia coli DC-2; Escherichia coli, DC2, 24 h): > 100 µg/mL; MIC (Escherichia coli H560): 100 µg/mL (≈ 137 µM); MIC (Escherichia coli JUHL; Escherichia coli, 24 h): > 100 µg/mL; MIC (Escherichia coli SS; read-out: MIC): 0.78 µg/mL (≈ 1.07 µM); MIC ([3]; Klebsiella pneumoniae, ATCC8045, 24 h): > 100 µg/mL; MIC (Staphylococcus aureus 45; [30]): 3.1 µg/mL (≈ 4.26 µM); MIC ([14]; Staphylococcus aureus, 24 h): 0.39 µg/mL (≈ 0.536 µM); MIC ([16]; Staphylococcus epidermidis, 3519, 24 h): 0.39 µg/mL (≈ 0.536 µM); MIC [17, 31]: 0.05 µg/mL (≈ 0.0687 µM); MIC ([20]; Streptococcus, EES61, 24 h): 0.05 µg/mL (≈ 0.0687 µM)
